We go through 24 molecules from US20250340575A1, “4-AMINOPYRROLO[2,1-F][1,2,4]TRIAZINES AND PREPARATION AND USES THEREOF” (Biosplice Therapeutics, Inc., priority 2024, published 2025).

SMILES strings stand for the structures.

In this assay the target is recombinant DYRK1A kinase (Homo sapiens, UniProt Q13627). Briefly: DYRK1A kinase assay (Ser/Thr 18 peptide Z-lyte FRET). The settings on record: DYRK1A 0.25 μg/mL, ATP 15 μM, Ser/Thr peptide 18 4 μM, one hour at room temperature, 11-point dose-response from 10 μM. The format is biochemical.
Take `CNc1nc(N[C@@H]2CCN(C)CC2(F)F)nn2ccc(-c3ccc4nnn(CCF)c4n3)c12` [Compound 237, (R)—N^2-(3,3-Difluoro-1-methylpiperidin-4-yl)-5-(3-(2-fluoroethyl)-3H-[1,2,3]triazolo[4,5-b]pyridin-5-yl)-N^4-methylpyrrolo[2,1-f][1,2,4]triazine-2,4-diamine]: the IC50 amounted to 0.7 nM.

As for `CNc1nc(N[C@@H]2CCN(C(C)=O)CC2(F)F)nn2ccc(-c3ccc4nnn(CCF)c4n3)c12` [Compound 238, (R)-1-(3,3-Difluoro-4-((5-(3-(2-fluoroethyl)-3H-[1,2,3]triazolo[4,5-b]pyridin-5-yl)-4-(methylamino)pyrrolo[2,1-f][1,2,4]triazin-2-yl)amino)piperidin-1-yl)ethan-1-one], the concentration for half-maximal inhibition (IC50) was 1.4 nM. For the molecule `CNc1nc(N[C@@H]2CCN(C3COC3)CC2(F)F)nn2ccc(-c3ccc4nnn(CCF)c4n3)c12` [Compound 239, (R)—N^2-(3,3-Difluoro-1-(oxetan-3-yl)piperidin-4-yl)-5-(3-(2-fluoroethyl)-3H-[1,2,3]triazolo[4,5-b]pyridin-5-yl)-N^4-methylpyrrolo[2,1-f][1,2,4]triazine-2,4-diamine], the IC50 was found to be 0.6 nM. In the case of `CNc1nc(N[C@H]2CC[C@](C)(O)CC2)nn2cc(F)c(-c3ccc4nnn(CCF)c4n3)c12` [Compound 248, (1r,4r)-4-((6-Fluoro-5-(3-(2-fluoroethyl)-3H-[1,2,3]triazolo[4,5-b]pyridin-5-yl)-4-(methylamino)pyrrolo[2,1-f][1,2,4]triazin-2-yl)amino)-1-methylcyclohexan-1-ol] it was 2 nM; in that of `CNc1nc(N[C@H]2CCN(C(C)=O)C[C@H]2F)nn2cc(F)c(-c3ccc4nnn(CCF)c4n3)c12` [Compound 249, 1-((3R,4S)-3-Fluoro-4-((6-fluoro-5-(3-(2-fluoroethyl)-3H-[1,2,3]triazolo[4,5-b]pyridin-5-yl)-4-(methylamino)pyrrolo[2,1-f][1,2,4]triazin-2-yl)amino)piperidin-1-yl)ethan-1-one], 1.9 nM; in that of `CNc1nc(N[C@H]2CCN(C3COC3)C[C@H]2F)nn2cc(F)c(-c3ccc4nnn(CCF)c4n3)c12` [Compound 250, 6-Fluoro-N^2-((3R,4S)-3-fluoro-1-(oxetan-3-yl)piperidin-4-yl)-5-(3-(2-fluoroethyl)-3H-[1,2,3]triazolo[4,5-b]pyridin-5-yl)-N^4-methylpyrrolo[2,1-f][1,2,4]triazine-2,4-diamine], 0.7 nM. Under `CNc1nc(N[C@@H]2CCN(C)CC2(F)F)nn2cc(F)c(-c3ccc4nnn(CCF)c4n3)c12` [Compound 251, (R)—N^2-(3,3-Difluoro-1-methylpiperidin-4-yl)-6-fluoro-5-(3-(2-fluoroethyl)-3H-[1,2,3]triazolo[4,5-b]pyridin-5-yl)-N^4-methylpyrrolo[2,1-f][1,2,4]triazine-2,4-diamine] stands 2.2 nM; under `CNc1nc(N[C@@H]2CCN(C(C)=O)CC2(F)F)nn2cc(F)c(-c3ccc4nnn(CCF)c4n3)c12` [Compound 252, (R)-1-(3,3-Difluoro-4-((6-fluoro-5-(3-(2-fluoroethyl)-3H-[1,2,3]triazolo[4,5-b]pyridin-5-yl)-4-(methylamino)pyrrolo[2,1-f][1,2,4]triazin-2-yl)amino)piperidin-1-yl)ethan-1-one], 1.9 nM; under `CNc1nc(N[C@@H]2CCN(C3COC3)CC2(F)F)nn2cc(F)c(-c3ccc4nnn(CCF)c4n3)c12` [Compound 254, (R)—N^2-(3,3-Difluoro-1-(oxetan-3-yl)piperidin-4-yl)-6-fluoro-5-(3-(2-fluoroethyl)-3H-[1,2,3]triazolo[4,5-b]pyridin-5-yl)-N^4-methylpyrrolo[2,1-f][1,2,4]triazine-2,4-diamine], 2.2 nM. Turning to `COCCN1CC[C@H](Nc2nc(N)c3c(-c4ccc5nnn(CC(F)F)c5n4)ccn3n2)[C@H](F)C1` [Compound 256, 5-(3-(2,2-Difluoroethyl)-3H-[1,2,3]triazolo[4,5-b]pyridin-5-yl)-N^2-((3R,4S)-3-fluoro-1-(2-methoxyethyl)piperidin-4-yl)pyrrolo[2,1-f][1,2,4]triazine-2,4-diamine], the concentration for half-maximal inhibition (IC50) came to 3.5 nM. In the case of `C[C@]1(O)CC[C@H](Nc2nc(N)c3c(-c4ccc5nnn(CC(F)F)c5n4)c(F)cn3n2)CC1` [Compound 257, (1r,4r)-4-((4-Amino-5-(3-(2,2-difluoroethyl)-3H-[1,2,3]triazolo[4,5-b]pyridin-5-yl)-6-fluoropyrrolo[2,1-f][1,2,4]triazin-2-yl)amino)-1-methylcyclohexan-1-ol] it was 1.4 nM.

In the case of `CC(=O)N1CC[C@H](Nc2nc(N)c3c(-c4ccc5nnn(CC(F)F)c5n4)c(F)cn3n2)[C@H](F)C1` [Compound 258, 1-((3R,4S)-4-((4-amino-5-(3-(2,2-difluoroethyl)-3H-[1,2,3]triazolo[4,5-b]pyridin-5-yl)-6-fluoropyrrolo[2,1-f][1,2,4]triazin-2-yl)amino)-3-fluoropiperidin-1-yl)ethan-1-one], the IC50 came to 1.3 nM.

In the case of `Nc1nc(N[C@H]2CCN(C3COC3)C[C@H]2F)nn2cc(F)c(-c3ccc4nnn(CC(F)F)c4n3)c12` [Compound 260, 5-(3-(2,2-Difluoroethyl)-3H-[1,2,3]triazolo[4,5-b]pyridin-5-yl)-6-fluoro-N^2-((3R,4S)-3-fluoro-1-(oxetan-3-yl)piperidin-4-yl)pyrrolo[2,1-f][1,2,4]triazine-2,4-diamine], the IC50 amounted to 1.8 nM. In the case of `CN1CC[C@@H](Nc2nc(N)c3c(-c4ccc5nnn(CC(F)F)c5n4)c(F)cn3n2)C(F)(F)C1` [Compound 261, (R)—N^2-(3,3-Difluoro-1-methylpiperidin-4-yl)-5-(3-(2,2-difluoroethyl)-3H-[1,2,3]triazolo[4,5-b]pyridin-5-yl)-6-fluoropyrrolo[2,1-f][1,2,4]triazine-2,4-diamine] it was 0.6 nM; in that of `CC(=O)N1CC[C@@H](Nc2nc(N)c3c(-c4ccc5nnn(CC(F)F)c5n4)c(F)cn3n2)C(F)(F)C1` [Compound 262, (R)-1-(4-((4-Amino-5-(3-(2,2-difluoroethyl)-3H-[1,2,3]triazolo[4,5-b]pyridin-5-yl)-6-fluoropyrrolo[2,1-f][1,2,4]triazin-2-yl)amino)-3,3-difluoropiperidin-1-yl)ethan-1-one], 1.3 nM; in that of `Nc1nc(N[C@@H]2CCN(C3COC3)CC2(F)F)nn2cc(F)c(-c3ccc4nnn(CC(F)F)c4n3)c12` [Compound 264, (R)—N^2-(3,3-Difluoro-1-(oxetan-3-yl)piperidin-4-yl)-5-(3-(2,2-difluoroethyl)-3H-[1,2,3]triazolo[4,5-b]pyridin-5-yl)-6-fluoropyrrolo[2,1-f][1,2,4]triazine-2,4-diamine], 1.2 nM. Take `CC[C@]1(O)C[C@H](Nc2nc(NC)c3c(-c4ccc5nnn(CC(F)F)c5n4)ccn3n2)C1` [Compound 267, (1r,3s)-3-((5-(3-(2,2-Difluoroethyl)-3H-[1,2,3]triazolo[4,5-b]pyridin-5-yl)-4-(methylamino)pyrrolo[2,1-f][1,2,4]triazin-2-yl)amino)-1-ethylcyclobutan-1-ol]: the IC50 came to 0.5 nM.

Take `CNc1nc(NC2CCN(CC(F)F)CC2)nn2ccc(-c3ccc4nnn(CC(F)F)c4n3)c12` [Compound 270, 5-(3-(2,2-Difluoroethyl)-3H-[1,2,3]triazolo[4,5-b]pyridin-5-yl)-N^2-(1-(2,2-difluoroethyl)piperidin-4-yl)-N^4-methylpyrrolo[2,1-f][1,2,4]triazine-2,4-diamine]: the IC50 is 1.7 nM. Turning to `CNc1nc(NC2CCN(C3COC3)CC2)nn2ccc(-c3ccc4nnn(CC(F)F)c4n3)c12` [Compound 271, 5-(3-(2,2-Difluoroethyl)-3H-[1,2,3]triazolo[4,5-b]pyridin-5-yl)-N^4-methyl-N^2-(1-(oxetan-3-yl)piperidin-4-yl)pyrrolo[2,1-f][1,2,4]triazine-2,4-diamine], the 50% inhibitory concentration (IC50) stood at 2.9 nM. Take `CNc1nc(N[C@@H]2CCN(C)C[C@@H]2F)nn2ccc(-c3ccc4nnn(CC(F)F)c4n3)c12` [Compound 272, 5-(3-(2,2-Difluoroethyl)-3H-[1,2,3]triazolo[4,5-b]pyridin-5-yl)-N^2-((3S,4R)-3-fluoro-1-methylpiperidin-4-yl)-N^4-methylpyrrolo[2,1-f][1,2,4]triazine-2,4-diamine]: the IC50 was 5 nM. Regarding `CNc1nc(N[C@H]2CCN(C)C[C@H]2F)nn2ccc(-c3ccc4nnn(CC(F)F)c4n3)c12` [Compound 273, 5-(3-(2,2-Difluoroethyl)-3H-[1,2,3]triazolo[4,5-b]pyridin-5-yl)-N^2-((3R,4S)-3-fluoro-1-methylpiperidin-4-yl)-N^4-methylpyrrolo[2,1-f][1,2,4]triazine-2,4-diamine], the half-inhibitory concentration (IC50) stood at 2.7 nM.

Turning to `CNc1nc(N[C@H]2CCN(CCF)C[C@H]2F)nn2ccc(-c3ccc4nnn(CC(F)F)c4n3)c12` [Compound 274, 5-(3-(2,2-Difluoroethyl)-3H-[1,2,3]triazolo[4,5-b]pyridin-5-yl)-N^2-((3R,4S)-3-fluoro-1-(2-fluoroethyl)piperidin-4-yl)-N^4-methylpyrrolo[2,1-f][1,2,4]triazine-2,4-diamine], the IC50 came to 3.6 nM.

For the molecule `CNc1nc(N[C@H]2CCN(CCOC)C[C@H]2F)nn2ccc(-c3ccc4nnn(CC(F)F)c4n3)c12` [Compound 275, 5-(3-(2,2-Difluoroethyl)-3H-[1,2,3]triazolo[4,5-b]pyridin-5-yl)-N^2-((3R,4S)-3-fluoro-1-(2-methoxyethyl)piperidin-4-yl)-N^4-methylpyrrolo[2,1-f][1,2,4]triazine-2,4-diamine], the IC50 was determined as 8.4 nM. Turning to `CNc1nc(N[C@@H]2CCN(C(=O)CO)CC2(F)F)nn2ccc(-c3ccc4nnn(CC(F)F)c4n3)c12` [Compound 276, (R)-1-(4-((5-(3-(2,2-Difluoroethyl)-3H-[1,2,3]triazolo[4,5-b]pyridin-5-yl)-4-(methylamino)pyrrolo[2,1-f][1,2,4]triazin-2-yl)amino)-3,3-difluoropiperidin-1-yl)-2-hydroxyethan-1-one], the IC50 worked out at 1.2 nM.

As usually defined, the IC50 is the concentration needed to halve the response being measured.
